# Values quoted from earlier work as cited in patent US8383645B2 (Teva Pharmaceutical Industries, Ltd., priority 2006, dated 2013).
# System: acute experimental autoimmune encephalomyelitis (aEAE) model
# Conditions: U.S. Pat. No. 6,077,851
smiles,measurement,value
"CCN(C(=O)c1c(O)c2c(Cl)cccc2n(C)c1=O)c1ccccc1 [Laquinimod, N-ethyl-N-phenyl-1,2-dihydro-4-hydroxy-5-chloro-1-methyl-2-oxoquinoline-3-carboxamide]",effectiveness in the aEAE model,effective
